US6352970B1, “Treatment of skeletal disorders” (Pfizer Inc., priority 1998, dated 2002)

Tested on: ob/ob mouse
Experiment: Leptin administration for four weeks in ob/ob mouse, bone measured by peripheral quantitative computerized tomography
Type: in vivo
From the text: Administration of leptin for four weeks increased femur length by 6% and increased cortical bone volumetric content by 18%, as determined by peripheral quantitative computerized tomography.

[1] = peripheral quantitative computerized tomography

Substance: leptin: a product of the obese gene, a 16 kDa protein produced by mature adipocytes and secreted in plasma
- increase in femur length: 6%
- bone volumetric density [1]: unchanged
- increase in cortical bone volumetric content [1]: 18%
